Experimental data as given in patent US20250092065A1, “2-(INDAZOL-5-YL)-6-(PIPERIDIN-4-YL)-1,7-NAPHTHYRIDINE DERIVATIVES AND RELATED COMPOUNDS AS MODULATORS FOR SPLICING NUCLEIC ACIDS AND FOR THE TREATMENT OF PROLIFERATIVE DISEASES” (REMIX THERAPEUTICS INC., priority 2022, published 2025).
Counter-ions that a name gives are not always drawn. Like-named read-outs stand apart in the source and are kept apart here.

Tests used:
[1] = test system: K562 cells; assay: Cell Titer Glo 2.0 cell viability (toxicity) assay, K562; settings: 500 cells/well, 72 hours
[2] = test system: MYB; assay: HiBiT protein abundance assay, MYB (K562 HiBiT knock-in); assay type: cell-based, human; settings: HiBiT knock-in K562 cells, 24 hours, top dose 10 μM
How it was run: (§1)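 Luminescence readout: Nano-Glo HiBiT lytic detection after 24 h compound exposure of K562 HiBiT knock-in cells, 10000 cells/well. Dosing 10-pt, 3-fold, top 10 μM final. % response vs untreated parental K562 and DMSO controls; 4PL fit, IC50 = concentration giving 50% protein abundance.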

[3] = test system: HTT; assay: HiBiT protein abundance assay, HTT (K562 HiBiT knock-in); assay type: cell-based, human; settings: HiBiT knock-in K562 cells, 24 hours, top dose 10 μM
How it was run: as §1

[4] = test system: HTT mRNA; assay: RT-qPCR splicing assay, HTT mRNA canonical (CJ) and alternative (AJ) junction; assay type: cell-based, human; settings: Homo sapiens; for AC50: HTT alternative junction mRNA, read-out: HTT AJ (increase in AJ mRNA, AC50)
How it was run: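 Canonical and alternative-exon junction isoforms were quantified by RT-qPCR in cell lysates, with ΔCt against a housekeeper (GAPDH/GUSB/PPIA), then ΔΔCt vs DMSO, converted to 2^(−ΔΔCt) and percent response. K562 or A673 cells were exposed for 24 h to 11 concentrations (3-fold, top final 10 uM).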

[5] = test system: Target C; assay: HiBiT protein abundance assay, Target C (K562 HiBiT knock-in); assay type: cell-based, human; settings: HiBiT knock-in K562 cells, 24 hours, top dose 10 μM
How it was run: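 K562 HiBiT knock-in cells (10000/well) were treated 24 h at 37° C with a 10-point 3-fold dilution series (top 10 μM final, ≤0.25% DMSO). HiBiT luminescence was read after lytic LgBiT detection. Percent response used unmodified K562 and DMSO-treated knock-in controls, and IC50 came from a four-parameter fit at 50% of untreated.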

[6] = HTT canonical junction mRNA, RT-qPCR, read-out: HTT CJ (decrease in CJ mRNA levels, IC50)
[7] = canonical junction qPCR panel, Table 4, read-out: HTT IC50 (decrease in CJ mRNA levels)

Row | Compound | Effect of Exemplary Compounds on Cell Viability, K562 [1] | IC50 [2] | IC50 [3] | AC50 ([4]; RT-qPCR) | IC50 [4, 6] | IC50 [4, 7] | IC50 [5]
1 | C[C@@H]1CN(c2ccc3nc(-c4cc5cn(C)nc5c(F)c4O)nc(C(N)=O)c3c2)C[C@H](C)N1 [Compound 712, 6-[(3R,5S)-3,5-dimethylpiperazin-1-yl]-2-(7-fluoro-6-hydroxy-2-methylindazol-5-yl) quinazoline-4-carboxamide] | A (A represents <100 nM) | < 100 nM | 100 to 1000 nM | 1000 to 10000 nM | 1000 to 10000 nM | 1000 to 10000 nM | 1000 to 10000 nM
2 | CC(=O)c1nc(-c2cc3cn(C)nc3c(F)c2O)nc2ccc(N3C[C@@H](C)N[C@@H](C)C3)cc12 [Compound 717, 1-{6-[(3R,5S)-3,5-dimethylpiperazin-1-yl]-2-(7-fluoro-6-hydroxy-2-methylindazol-5-yl)quinazolin-4-yl}ethanone] | A (A represents <100 nM) | < 100 nM | 100 to 1000 nM | 100 to 1000 nM | 100 to 1000 nM | 100 to 1000 nM | 100 to 1000 nM
3 | CNC(=O)c1nc(-c2cc3cn(C)nc3c(F)c2O)nc2ccc(N3CCC(N4CCC4)CC3)cc12 [Compound 722, 6-[4-(azetidin-1-yl)piperidin-1-yl]-2-(7-fluoro-6-hydroxy-2-methylindazol-5-yl)-N-methylquinazoline-4-carboxamide] | A (A represents <100 nM) | < 100 nM | < 100 nM | 100 to 1000 nM | < 100 nM | < 100 nM | 100 to 1000 nM
4 | Cc1cc(N2C[C@@H](C)N[C@@H](C)C2)cc2c(Cl)cc(-c3cc4cn(C)nc4c(F)c3O)nc12 [Compound 723, 5-{4-chloro-6-[(3R,5S)-3,5-dimethylpiperazin-1-yl]-8-methylquinolin-2-yl}-7-fluoro-2-methylindazol-6-ol] | A (A represents <100 nM) | < 100 nM | < 100 nM | 100 to 1000 nM | < 100 nM | < 100 nM | < 100 nM
5 | CNC(=O)c1nc(-c2cc3cn(C)nc3c(F)c2O)nc2ccc(N3CCNC4(CC4)C3)cc12 [Compound 728, 6-{4,7-diazaspiro[2.5]octan-7-yl}-2-(7-fluoro-6-hydroxy-2-methylindazol-5-yl)-N-methylquinazoline-4-carboxamide] | A (A represents <100 nM) | < 100 nM | 100 to 1000 nM | 100 to 1000 nM | 100 to 1000 nM | 100 to 1000 nM | 100 to 1000 nM
6 | CNC(=O)c1nc(-c2cc3cn(C)nc3c(F)c2O)nc2ccc(N3CC[C@@H](NC)C3)cc12 [Compound 729, 2-(7-fluoro-6-hydroxy-2-methylindazol-5-yl)-N-methyl-6-[(3R)-3-(methylamino)pyrrolidin-1-yl]quinazoline-4-carboxamide] | A (A represents <100 nM) | < 100 nM | < 100 nM | < 100 nM | < 100 nM | < 100 nM | < 100 nM
7 | C[C@@H]1CN(c2ccc3nc(-c4cc5cn(C)nc5c(F)c4O)nc(-c4nccs4)c3c2)C[C@H](C)N1 [Compound 732, 5-{6-[(3R,5S)-3,5-dimethylpiperazin-1-yl]-4-(1,3-thiazol-2-yl)quinazolin-2-yl}-7-fluoro-2-methylindazol-6-ol] | B (B represents 100-1000 nM) | 1000 to 10000 nM | 1000 to 10000 nM | > 10000 nM | > 10000 nM | > 10000 nM | 1000 to 10000 nM
8 | C[C@@H]1CN(c2ccc3nc(-c4cc5cn(C)nc5c(F)c4O)nc(C(=O)NCCO)c3c2)C[C@H](C)N1 [Compound 737, 6-[(3R,5S)-3,5-dimethylpiperazin-1-yl]-2-(7-fluoro-6-hydroxy-2-methylindazol-5-yl)-N-(2-hydroxyethyl)quinazoline-4-carboxamide] | A (A represents <100 nM) | 100 to 1000 nM | 1000 to 10000 nM | 1000 to 10000 nM | 1000 to 10000 nM | 1000 to 10000 nM | 1000 to 10000 nM
9 | CNC(=O)c1nc(-c2cc3cn(C)nc3cc2O)nc2ccc(N3CCC(N(C)C)CC3)cc12 [Compound 742, 6-[4-(dimethylamino)piperidin-1-yl]-2-(6-hydroxy-2-methylindazol-5-yl)-N-methylquinazoline-4-carboxamide] | A (A represents <100 nM) | 100 to 1000 nM | 1000 to 10000 nM | > 10000 nM | 100 to 1000 nM | 100 to 1000 nM | > 10000 nM
10 | C[C@@H]1CN(c2ccc3nc(-c4cc5cn(C)nc5c(F)c4O)ncc3c2)C[C@H](C)N1 [Compound 743, 5-{6-[(3R,5S)-3,5-dimethylpiperazin-1-yl]quinazolin-2-yl}-7-fluoro-2-methylindazol-6-ol] | C (C represents 1000-9999 nM) | 1000 to 10000 nM | 1000 to 10000 nM | 1000 to 10000 nM | > 10000 nM | > 10000 nM | 1000 to 10000 nM
11 | C[C@H]1CN(c2ccc3nc(-c4cc5cn(C)nc5c(F)c4O)ncc3c2)C[C@H](C)N1 [Compound 744, 5-{6-[(3S,5S)-3,5-dimethylpiperazin-1-yl]quinazolin-2-yl}-7-fluoro-2-methylindazol-6-ol] | A (A represents <100 nM) | < 100 nM | < 100 nM | < 100 nM | < 100 nM | < 100 nM | < 100 nM
12 | C[C@@H]1CN(c2ccc3nc(-c4cc5cn(C)nc5c(F)c4O)ncc3c2)C[C@@H](C)N1 [Compound 745, 5-{6-[(3R,5R)-3,5-dimethylpiperazin-1-yl]quinazolin-2-yl}-7-fluoro-2-methylindazol-6-ol] | A (A represents <100 nM) | < 100 nM | 100 to 1000 nM | 100 to 1000 nM | 100 to 1000 nM | 100 to 1000 nM | 100 to 1000 nM
13 | CN[C@@H]1CCN(c2cc3c(Cl)cc(-c4cc5cn(C)nc5c(C)c4O)nc3cc2C)C1 [Compound 748, 5-{4-chloro-7-methyl-6-[(3R)-3-(methylamino)pyrrolidin-1-yl]quinolin-2-yl}-2,7-dimethylindazol-6-ol] | B (B represents 100-1000 nM) | 100 to 1000 nM | > 10000 nM | > 10000 nM | > 10000 nM | > 10000 nM | > 10000 nM
14 | CN[C@H]1CCN(c2cc3c(Cl)cc(-c4cc5cn(C)nc5c(C)c4O)nc3cc2C)C1 [Compound 749, 5-{4-chloro-7-methyl-6-[(3S)-3-(methylamino)pyrrolidin-1-yl]quinolin-2-yl}-2,7-dimethylindazol-6-ol] | B (B represents 100-1000 nM) | 100 to 1000 nM | > 10000 nM | > 10000 nM | > 10000 nM | > 10000 nM | > 10000 nM
15 | Cn1cc2cc(-c3ncc4cc(N5CCC(N6CCC6)CC5)ccc4n3)c(O)c(F)c2n1 [Compound 750, 5-{6-[4-(azetidin-1-yl)piperidin-1-yl]quinazolin-2-yl}-7-fluoro-2-methylindazol-6-ol] | B (B represents 100-1000 nM) | 100 to 1000 nM | 100 to 1000 nM | 100 to 1000 nM | 100 to 1000 nM | 100 to 1000 nM | 100 to 1000 nM
16 | C[C@@H]1CN(c2ccc3nc(-c4cc5cn(C)nc5cc4O)ncc3c2)C[C@H](C)N1 [Compound 751, 5-{6-[(3R,5S)-3,5-dimethylpiperazin-1-yl]quinazolin-2-yl}-2-methylindazol-6-ol hydrochloride] | B (B represents 100-1000 nM) | 100 to 1000 nM | > 10000 nM | > 10000 nM | > 10000 nM | > 10000 nM | > 10000 nM
17 | C[C@H]1CN(c2ccc3nc(-c4cc5cn(C)nc5cc4O)ncc3c2)C[C@H](C)N1 [Compound 752, 5-{6-[(3S,5S)-3,5-dimethylpiperazin-1-yl]quinazolin-2-yl}-2-methylindazol-6-ol] | B (B represents 100-1000 nM) | < 100 nM | 100 to 1000 nM | 1000 to 10000 nM | 1000 to 10000 nM | 1000 to 10000 nM | 100 to 1000 nM
18 | C[C@@H]1CN(c2ccc3nc(-c4cc5cn(C)nc5cc4O)ncc3c2)C[C@@H](C)N1 [Compound 753, 5-{6-[(3R,5R)-3,5-dimethylpiperazin-1-yl]quinazolin-2-yl}-2-methylindazol-6-ol] | A (A represents <100 nM) | 100 to 1000 nM | 100 to 1000 nM | 1000 to 10000 nM | 1000 to 10000 nM | 1000 to 10000 nM | 100 to 1000 nM
